Results published in PMC9503608, “An Insight into Symmetrical Cyanine Dyes as Promising Selective Antiproliferative Agents in Caco-2 Colorectal Cancer Cells” (Molecules, 2022).
Like-named read-outs stand apart in the source and are kept apart here.

Experiments:
[1] = MTT cell viability assay, NHDF; type: cell-based, human; conditions: human, normal human dermal fibroblasts (NHDF), single concentration of 10 µM, 72 h, mean ± SD; read-out: cell viability percentage in relation with control, NHDF
Experimental: (§1) Caco-2, MCF-7, PC-3, and NHDF cell lines were obtained from the American Type Culture Collection (ATCC) and maintained in 75 cm^2 culture flasks in a humidified atmosphere at 37 °C with 5% carbon dioxide using a LEEC Culture Safe Precision CO2 Incubator. The culture media was renewed every two to three days. The NHDF cell line was cultured in Roswell Park Memorial Institute (RPMI) medium supplemented with 10% of inactivated fetal bovine serum (FBS), 2 mM of L-glutamine, 10 mM of 4-(2-hydroxyethyl)-1-piperazineethanesulfonic acid (HEPES), 1 mM of sodium pyruvate, and 1% of antibiotic/antimycotic mixture (Ab; 10,000 U/mL of penicillin G, […] of streptomycin, and 25 µg/mL of amphotericin B). The PC-3 cell line was also cultured in RPMI 1640 medium supplemented with 10% inactivated FBS and 1% of an antibiotic mixture (Sp; 10,000 U/mL of penicillin G and […] of streptomycin). The Caco-2 and MCF-7 cell lines were grown in Dulbecco’s Modified Eagle Medium (DMEM). Caco-2 was supplemented with 20% of inactivated FBS and 1% of Sp. On the other hand, the MCF-7 medium was complemented with 10% of inactivated FBS and 1% of Ab. All manipulations were performed in a Labculture Class II A2 Biological Safety Cabinet.
(§2) After the near confluency of cultures, cells were detached with a solution of 0.125 g/L trypsin and 0.02 g/L ethylenediaminetetracetic acid (EDTA), counted using the trypan blue method, resuspended, and seeded in 96-well culture plates (100 µL, 2 × 10^4 cells/mL). Following 48 h of adherence, cells were treated with the test solutions and incubated for 72 h. This incubation, as well as the solution manipulations, were performed in an environment protected from light. After the incubation, the medium was replaced with a fresh incomplete culture medium (without FBS and Ab or Sp) and MTT solution (5 mg/mL in phosphate buffer saline (PBS)). After additional incubation for 4 h, the MTT medium was removed, formazan crystals were dissolved in DMSO, and the optical density of each well was measured at 570 nm using a microplate spectrophotometer Bio-Rad xMark. Untreated cells were used as a negative control and 5-FU as the positive control. The results were expressed as the relative cell proliferation relative to the negative control cells. […] To determine the IC50 values, Caco-2, MCF-7, PC-3, and NHDF cells were exposed to increasing concentrations between 0.001 and 100 μM.

[2] = test system: Caco-2 colorectal adenocarcinoma cell line; assay: MTT cell viability assay, Caco-2; type: cell-based, human; conditions: for viability at 10 µM / cell viability percentage in relation with control, Caco-2: single concentration of 10 µM, mean ± SD; for viability at 10 µM / SI Caco-2 (selectivity index, cancer versus NHDF) / cell viability percentage in relation with control, Caco-2: 72 h; for viability at 10 µM: read-out: cell viability percentage in relation with control, Caco-2; for IC50: 72 h of incubation, MTT, protected from light; for SI Caco-2 (selectivity index, cancer versus NHDF): Caco-2 versus NHDF
Experimental: as §1, §2

[3] = test system: MCF-7 breast adenocarcinoma cell line; assay: MTT cell viability assay, MCF-7; type: cell-based, human; conditions: single concentration of 10 µM, 72 h, mean ± SD; for viability at 10 µM: Homo sapiens, read-out: cell viability percentage in relation with control, MCF-7
Experimental: as §1, §2

[4] = test system: PC-3 prostate adenocarcinoma cell line; assay: MTT cell viability assay, PC-3; type: cell-based, human
Experimental: as §1, §2

[5] = test system: normal human dermal fibroblasts (NHDF); assay: MTT cell viability assay, NHDF; type: cell-based; conditions: for IC50: 72 h of incubation, MTT, protected from light; for cell viability percentage in relation with control, NHDF: single concentration of 10 µM, mean ± SD
Experimental: as §1, §2

[6] = MTT cell viability assay, Caco-2; type: cell-based, human; conditions: human, 72 h, read-out: SI Caco-2 (selectivity index, cancer versus NHDF)
Experimental: as §1, §2

[7] = Homo sapiens; single concentration of 10 µM, 72 h, mean ± SD; read-out: cell viability percentage in relation with control, PC-3
[8] = Homo sapiens, 72 h, single concentration of 10 µM, 72 h, mean ± SD; read-out: cell viability percentage in relation with control, PC-3
[9] = single concentration of 10 µM, 72 h, mean ± SD

| SMILES | viability at 72 h, 10 µM [1] [%] | melting point | IC50 ([5]; Homo sapiens, NHDF, 72 h) [nM] | selectivity ratio at 72 h ([6]; Caco-2, Caco-2 versus NHDF) | IC50 ([2]; Homo sapiens, Caco-2, 72 h) [nM] | viability at 10 µM ([2]; Homo sapiens, Caco-2, 72 h) [%] | viability at 10 µM ([3]; MCF7, 72 h) [%] | viability at 10 µM [4, 8] [%] | further results |
| --- | --- | --- | --- | --- | --- | --- | --- | --- | --- |
| CCCCCCCCCCN1C(=CC=C2CCCC(C=Cc3[se]c4ccccc4[n+]3CCCCCCCCCC)=C2Cl)[Se]c2ccccc21.[I-] [Dye 18, 2-(2-(2-Chloro-3-(2-(3-decylbenzo[d][1,3]selenazol-2(3H)-ylidene)ethylidene)cyclohex-1-en-1-yl)vinyl)-3-decylbenzo[d][1,3]selenazol-3-ium iodide] | 36.6 ± 1.75 | 221 to 224 °C |  |  |  |  |  |  | viability at 10 µM ([2]; Homo sapiens, Caco-2): 47.2 ± 5.29%; viability at 10 µM ([3]; MCF7): 51.8 ± 10.1%; viability at 10 µM [4, 7]: 28.4 ± 7.73% |
| CCCCCN1C(=CC=C2CCCC(C=Cc3sc4ccccc4[n+]3CCCCC)=C2Cl)Sc2ccccc21.[I-] [Dye 17, 2-(2-(2-Chloro-3-(2-(3-pentylbenzo[d]thiazol-2(3H)-ylidene)ethylidene)cyclohex-1-en-1-yl)vinyl)-3-pentylbenzo[d]thiazol-3-ium iodide] | 2.26 ± 0.1 | 227 to 228 °C | 910 | 0.4 | 2060 | 0.24 ± 0.17 | 11.2 ± 3.11 | 0.43 ± 0.26 |  |
| CCN1C(=Cc2sc3ccccc3[n+]2CC)Sc2ccccc21 [Dye 6] | 3.37 ± 0.65 |  | 490 | 1.6 | 300 | 3.52 ± 0.3 | 1.08 ± 0.23 | 2.06 ± 0.89 |  |
| CN1C(=Cc2sc3ccccc3[n+]2C)Sc2ccccc21.[Br-] [Dye 3, 3-Methyl-2-((3-methylbenzo[d]thiazol-2(3H)-ylidene)methyl)benzo[d]thiazol-3-ium bromide] |  |  | 410 |  | 520 | 1.68 ± 0.53 |  | 1.27 ± 0.31 | cell viability percentage in relation with control, NHDF ([5]; 72 h): 3.93 ± 0.75%; SI Caco-2 (selectivity index, cancer versus NHDF) [2]: 0.8; cell viability percentage in relation with control, MCF-7 [3]: 0.52 ± 0.39% |
| CCCN1C=CC(=Cc2cc[n+](CCC)c3ccccc23)c2ccccc21.[I-] [Dye 14, 1-Propyl-4-((1-propylquinolin-4(1H)-ylidene)methyl)quinolin-1-ium iodide] | 1.99 ± 0.25 | 229 to 231 °C | 990 | 1.5 | 680 | 9.84 ± 0.93 | 22.9 ± 0.68 | 8.03 ± 2.15 |  |
| CCN1C(=CC=Cc2[se]c3ccccc3[n+]2CC)[Se]c2ccccc21.[I-] [Dye 16, 3-Ethyl-2-(3-(3-ethylbenzo[d][1,3]selenazol-2(3H)-ylidene)prop-1-en-1-yl)benzo[d][1,3]selenazol-3-ium iodide] | 4.53 ± 0.39 | 272 to 273 °C (dec.) |  |  |  |  |  |  | IC50 ([5]; Homo sapiens, NHDF): 480 nM; selectivity ratio at 72 h ([6]; Caco-2 versus NHDF): 6.5; IC50 ([2]; Homo sapiens, Caco-2): 70 nM; viability at 10 µM ([2]; Homo sapiens, Caco-2): 1.25 ± 0.39%; viability at 10 µM ([3]; MCF7): 1.39 ± 0.68%; viability at 10 µM [4, 7]: 3.92 ± 0.75% |
| CN1C(=Cc2sc3ccccc3[n+]2C)Sc2ccccc21.[I-] [Dye 4, 3-Methyl-2-((3-methylbenzo[d]thiazol-2(3H)-ylidene)methyl)benzo[d]thiazol-3-ium iodide] |  |  |  |  |  |  |  |  | IC50 ([5]; listed as 4): 730 nM; cell viability percentage in relation with control, NHDF ([5]; 72 h): 3.82 ± 0.21%; IC50 ([2]; listed as 4): 400 nM; SI Caco-2 (selectivity index, cancer versus NHDF) [2]: 1.8; cell viability percentage in relation with control, Caco-2 [2]: 3.01 ± 0.74%; cell viability percentage in relation with control, MCF-7 [3]: 2.26 ± 0.82%; cell viability percentage in relation with control, PC-3 [4, 9]: 1.18 ± 0.36% |
| CCCCCCCCCCN1C(=Cc2sc3ccccc3[n+]2CCCCCCCCCC)Sc2ccccc21.[I-] [Dye 11, 3-Decyl-2-((3-decylbenzo[d]thiazol-2(3H)-ylidene)methyl)benzo[d]thiazol-3-ium iodide] | 0.15 ± 0.38 | 232 to 233 °C | 720 | 0.6 | 1240 | 0.66 ± 0.44 | 0.1 ± 0.69 | 0.94 ± 0.11 |  |
| c1ccc2sc(Cc3nc4ccccc4s3)nc2c1 [bisbenzothiazole 1, bis(benzo[d]thiazol-2-yl)methane] | 31 ± 0.57 | 97 to 98 °C |  |  |  | 59.6 ± 5.45 | 55.7 ± 4.97 | 53.2 ± 9.68 |  |
| CN1/C(=C/c2sc3ccccc3[n+]2C)Sc2ccccc21 [Dye 2, Methyl-2-((3-methylbenzo[d]thiazol-2(3H)-ylidene)methyl)benzo[d]thiazol-3-ium chloride] | 5.64 ± 1.15 |  | 770 |  | 650 | 2.18 ± 0.64 | 0.85 ± 0.34 | 1.29 ± 0.24 | SI Caco-2 (selectivity index, cancer versus NHDF) [2]: 1.2 |
| CC1(C)C(=CC=C2CCCC(C=CC3=[N+](CCCCS(=O)(=O)O)c4ccccc4C3(C)C)=C2Cl)N(CCCCS(=O)(=O)O)c2ccccc21 [Dye 19, 2-(2-(2-Chloro-3-(2-(3,3-dimethyl-1-(4-sulfobutyl)indolin-2-ylidene)ethylidene)cyclohex-1-en-1-yl)vinyl)-3,3-dimethyl-1-(4-sulfobutyl)-3H-indol-1-ium iodide] | 42 ± 1.76 |  |  |  |  | 57.4 ± 1.75 | 94.4 ± 7.99 | 51.1 ± 5.32 |  |
| COC(=O)CN1C(=Cc2sc3ccccc3[n+]2CC(=O)OC)Sc2ccccc21.[Br-] [Dye 9, 3-(2-Methoxy-2-oxoethyl)-2-((3-(2-methoxy-2-oxoethyl)benzo[d]thiazol-2(3H)-ylidene)methyl)benzo[d]thiazol-3-ium bromide] | 47.9 ± 3.64 | 226 to 227 °C |  | 0.7 | 1000 | 47 ± 6.81 | 49 ± 13.9 | 46.8 ± 14 |  |
| CCN1C(=CC=Cc2oc3ccccc3[n+]2CC)Oc2ccccc21 [Dye 15, 3-Ethyl-2-(3-(3-ethylbenzo[d]oxazol-2(3H)-ylidene)prop-1-en-1-yl)benzo[d]oxazol-3-ium iodide] | 3.72 ± 0.23 |  | 4020 | 10.4 | 390 | 8.58 ± 0.92 | 6.03 ± 0.77 | 13.3 ± 1.9 |  |
| CN1C(=Cc2sc3ccccc3[n+]2C)Sc2ccccc21.Cc1ccc(S(=O)(=O)[O-])cc1 [Dye 5, 3-Methyl-2-((3-methylbenzo[d]thiazol-2(3H)-ylidene)methyl)benzo[d]thiazol-3-ium 4-methylbenzenesulfonate] |  |  |  |  |  |  |  |  | IC50 ([5]; listed as 5): 680 nM; cell viability percentage in relation with control, NHDF ([5]; 72 h): 4.42 ± 0.55%; IC50 ([2]; listed as 5): 280 nM; SI Caco-2 (selectivity index, cancer versus NHDF) [2]: 2.4; cell viability percentage in relation with control, Caco-2 [2]: 2.55 ± 0.58%; cell viability percentage in relation with control, MCF-7 [3]: 1.55 ± 0.53%; cell viability percentage in relation with control, PC-3 [4, 9]: 1 ± 0.18% |
